Source: ChEMBL document CHEMBL3638030, “IC50 data for the L-type calcium channel extracted from a set of literature articles”

Legend:
[1] = target: T1, Voltage-dependent L-type calcium channel subunit alpha-1C (Rattus norvegicus, UniProt P22002); experiment: (§1) Inhibition of Cav1.2 calcium current measured using whole cell patch clamp in rat ventricular myocytes; format: functional, cell-based, Heart, Ventricular myocyte; design: ca sol conc 2 mM, temp 22-24 C
[2] = target: T2, Voltage-dependent L-type calcium channel subunit alpha-1C (Cavia porcellus, UniProt O35505); experiment: (§2) Inhibition of Cav1.2 calcium current measured using whole cell patch clamp in guinea pig ventricular myocytes; format: functional, cell-based, Heart, Ventricular myocyte; design: ca sol conc 1.8 mM, temp room
T2 sequence (O35505 whole entry): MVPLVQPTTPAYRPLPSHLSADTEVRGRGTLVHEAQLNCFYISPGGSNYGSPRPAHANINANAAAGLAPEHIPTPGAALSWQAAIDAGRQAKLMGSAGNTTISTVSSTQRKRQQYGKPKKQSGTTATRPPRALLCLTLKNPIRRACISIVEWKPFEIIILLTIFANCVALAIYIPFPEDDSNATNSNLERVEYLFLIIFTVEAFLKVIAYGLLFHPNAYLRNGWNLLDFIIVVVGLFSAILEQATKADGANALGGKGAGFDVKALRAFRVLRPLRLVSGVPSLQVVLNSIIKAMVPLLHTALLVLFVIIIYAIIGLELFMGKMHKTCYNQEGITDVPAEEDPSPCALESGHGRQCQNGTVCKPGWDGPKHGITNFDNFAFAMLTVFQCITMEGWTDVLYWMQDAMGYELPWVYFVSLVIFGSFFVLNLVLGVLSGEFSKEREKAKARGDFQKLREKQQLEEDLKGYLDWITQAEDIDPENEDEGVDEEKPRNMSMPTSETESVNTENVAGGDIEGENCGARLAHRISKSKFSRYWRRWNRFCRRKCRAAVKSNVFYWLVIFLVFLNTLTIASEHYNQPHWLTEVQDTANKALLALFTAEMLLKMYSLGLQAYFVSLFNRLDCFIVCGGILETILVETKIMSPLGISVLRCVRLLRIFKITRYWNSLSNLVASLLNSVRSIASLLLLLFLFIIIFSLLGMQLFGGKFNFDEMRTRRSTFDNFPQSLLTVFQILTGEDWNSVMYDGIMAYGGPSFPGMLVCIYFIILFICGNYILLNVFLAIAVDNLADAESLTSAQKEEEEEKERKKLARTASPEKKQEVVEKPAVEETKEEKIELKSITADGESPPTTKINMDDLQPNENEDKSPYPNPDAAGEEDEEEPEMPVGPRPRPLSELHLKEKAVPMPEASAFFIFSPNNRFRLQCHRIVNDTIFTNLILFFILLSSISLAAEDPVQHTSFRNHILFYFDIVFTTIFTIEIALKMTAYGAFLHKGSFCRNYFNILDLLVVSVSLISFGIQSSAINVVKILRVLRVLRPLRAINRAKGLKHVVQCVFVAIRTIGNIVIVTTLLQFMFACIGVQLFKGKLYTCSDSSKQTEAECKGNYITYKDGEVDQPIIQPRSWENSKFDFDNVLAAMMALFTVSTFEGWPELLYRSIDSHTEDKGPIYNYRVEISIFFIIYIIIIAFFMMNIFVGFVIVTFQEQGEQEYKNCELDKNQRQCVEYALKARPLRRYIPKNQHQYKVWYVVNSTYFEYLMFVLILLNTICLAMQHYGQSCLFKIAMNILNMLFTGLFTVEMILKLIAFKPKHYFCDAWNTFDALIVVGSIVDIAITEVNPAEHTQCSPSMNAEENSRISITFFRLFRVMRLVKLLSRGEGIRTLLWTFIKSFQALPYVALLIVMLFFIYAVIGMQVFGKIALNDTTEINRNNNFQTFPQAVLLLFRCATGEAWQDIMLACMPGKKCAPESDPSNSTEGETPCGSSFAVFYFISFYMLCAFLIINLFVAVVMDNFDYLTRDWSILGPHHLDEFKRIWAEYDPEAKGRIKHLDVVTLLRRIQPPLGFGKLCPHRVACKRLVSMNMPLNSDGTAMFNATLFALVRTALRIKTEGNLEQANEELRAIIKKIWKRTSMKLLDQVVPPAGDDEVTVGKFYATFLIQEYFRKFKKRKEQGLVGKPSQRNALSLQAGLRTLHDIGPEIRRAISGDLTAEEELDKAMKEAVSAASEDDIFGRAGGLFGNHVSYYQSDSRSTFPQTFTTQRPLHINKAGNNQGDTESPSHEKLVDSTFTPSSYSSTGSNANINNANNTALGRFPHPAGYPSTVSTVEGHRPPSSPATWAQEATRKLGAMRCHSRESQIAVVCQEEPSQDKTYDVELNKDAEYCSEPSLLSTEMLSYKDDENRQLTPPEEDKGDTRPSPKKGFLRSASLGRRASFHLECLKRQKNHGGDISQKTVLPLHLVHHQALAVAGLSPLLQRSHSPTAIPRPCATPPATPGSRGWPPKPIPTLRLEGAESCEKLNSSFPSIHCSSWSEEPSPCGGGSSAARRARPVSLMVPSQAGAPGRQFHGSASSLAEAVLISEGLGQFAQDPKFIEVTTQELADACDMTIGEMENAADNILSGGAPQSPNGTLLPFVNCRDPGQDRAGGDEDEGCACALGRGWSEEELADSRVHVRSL

[3] = target: T3, Voltage-dependent L-type calcium channel subunit alpha-1C (Mus musculus, UniProt Q01815); experiment: (§3) Inhibition of Cav1.2 calcium current measured using whole cell patch clamp in mouse ventricular myocytes; format: functional, cell-based, Heart, Ventricular myocyte; design: ca sol conc 2 mM, temp room
[4] = target: T1, Voltage-dependent L-type calcium channel subunit alpha-1C; experiment: as §1; format: functional, cell-based, Heart, Ventricular myocyte; design: ca sol conc 1.8 mM, temp 25 C
[5] = target: T3, Voltage-dependent L-type calcium channel subunit alpha-1C; experiment: as §3; format: functional, cell-based, Heart, Ventricular myocyte; design: ca sol conc 2 mM, temp room; remark: listed apart in the source
[6] = target: T2, Voltage-dependent L-type calcium channel subunit alpha-1C; experiment: as §2; format: functional, cell-based, Heart, Ventricular myocyte; design: ca sol conc 1.8 mM, temp 35-36 C
[7] = target: T2, Voltage-dependent L-type calcium channel subunit alpha-1C; experiment: as §2; format: functional, cell-based, Heart, Ventricular myocyte; design: ca sol conc 1.8 mM, temp 20-24 C
[8] = target: T1, Voltage-dependent L-type calcium channel subunit alpha-1C; experiment: Inhibition of Cav1.2 calcium current measured using whole cell patch clamp in rat myocyte; format: functional, Heart, Cardiac Muscle Cell; design: ca sol conc 1.8 mM, temp 20-25 C
[9] = target: T2, Voltage-dependent L-type calcium channel subunit alpha-1C; experiment: as §2; format: functional, cell-based, Heart, Ventricular myocyte; design: ca sol conc 1.8 mM, temp 25-27 C
[10] = target: T2, Voltage-dependent L-type calcium channel subunit alpha-1C; experiment: Inhibition of Cav1.2 calcium current measured using whole cell patch clamp in guinea pig atrial myocytes; format: functional, cell-based, Heart, Cardiac Muscle Cell; design: ca sol conc 2 mM, temp 22 pm 1 C
[11] = target: T1, Voltage-dependent L-type calcium channel subunit alpha-1C; experiment: Inhibition of Cav1.2 calcium current measured using FLIPR in rat aortic A7r5 cells; format: functional, cell-based
[12] = target: T2, Voltage-dependent L-type calcium channel subunit alpha-1C; experiment: as §2; format: functional, cell-based, Heart, Ventricular myocyte; design: ca sol conc 2 mM, temp 21-23 C
[13] = target: T3, Voltage-dependent L-type calcium channel subunit alpha-1C; experiment: as §3; format: functional, cell-based, Heart, Ventricular myocyte; design: ca sol conc 2 mM, temp room; remark: listed apart in the source
[14] = target: T1, Voltage-dependent L-type calcium channel subunit alpha-1C; experiment: Inhibition of Cav1.2 calcium current measured using whole cell patch clamp in rat Artery myocytes; format: functional, cell-based, Tail; design: ca sol conc 5 mM, temp 20-22 C
[15] = target: T2, Voltage-dependent L-type calcium channel subunit alpha-1C; experiment: as §2; format: functional, cell-based, Heart, Ventricular myocyte; design: ca sol conc 1 mM, temp 35 C
[16] = target: T2, Voltage-dependent L-type calcium channel subunit alpha-1C; experiment: as §2; format: functional, cell-based, Heart, Ventricular myocyte; design: ca sol conc 1.8 mM
[17] = target: T2, Voltage-dependent L-type calcium channel subunit alpha-1C; experiment: as §2; format: functional, cell-based, Heart, Ventricular myocyte; design: ca sol conc 1.8 mM; remark: listed apart in the source
[18] = target: T2, Voltage-dependent L-type calcium channel subunit alpha-1C; experiment: as §2; format: functional, cell-based, Heart, Ventricular myocyte; design: ca sol conc 1.8 mM, temp 19 C
[19] = target: L-type calcium channel alpha 1C/beta 2A (Oryctolagus cuniculus, UniProt P15381+P54288); experiment: Inhibition of Cav1.2 calcium current measured using whole cell patch clamp in human HEK293 cells transfected with rabbit L-type calcium channel subunits; format: functional, cell-based; design: ca sol conc 5 mM, temp room
[20] = target: T4, Voltage-dependent L-type calcium channel subunit alpha-1C (Oryctolagus cuniculus, UniProt P15381); experiment: (§4) Inhibition of Cav1.2 calcium current measured using whole cell patch clamp in rabbit ventricular myocytes; format: functional, cell-based, Heart, Ventricular myocyte; design: ca sol conc 1.8 mM, temp 23 C
[21] = target: T4, Voltage-dependent L-type calcium channel subunit alpha-1C; experiment: as §4; format: functional, cell-based, Heart, Ventricular myocyte; design: ca sol conc 1.8 mM, temp 23 C; remark: listed apart in the source
[22] = target: T3, Voltage-dependent L-type calcium channel subunit alpha-1C; experiment: as §3; format: functional, cell-based, Heart; design: ca sol conc 2.5 mM, temp 22-24 C; settings: ventricular myocyte
[23] = target: T2, Voltage-dependent L-type calcium channel subunit alpha-1C; experiment: as §2; format: functional, cell-based, Heart, Ventricular myocyte; design: ca sol conc 1.8 mM; remark: listed apart in the source
[24] = target: T2, Voltage-dependent L-type calcium channel subunit alpha-1C; experiment: Inhibition of Cav1.2 calcium current measured using whole Cell patch clamp in guinea pig ventricular myocytes; format: functional, cell-based, Heart, Ventricular myocyte; design: ca sol conc 1.8 mM
[25] = target: T3, Voltage-dependent L-type calcium channel subunit alpha-1C; experiment: Inhibition of Cav1.2 calcium current measured using in mouse dorsal root ganglion neuron; format: functional, tissue-based; design: temp 20-23 C
[26] = target: T1, Voltage-dependent L-type calcium channel subunit alpha-1C; experiment: Inhibition of Cav1.2 calcium current measured using whole cell patch clamp in rat atrial myocytes; format: functional, cell-based, Heart, Cardiac Muscle Cell; design: ca sol conc 2 mM, temp 22-24 C
[27] = target: T1, Voltage-dependent L-type calcium channel subunit alpha-1C; experiment: as §1; format: functional, cell-based, Heart, Ventricular myocyte; design: ca sol conc 1 mM, temp 22-25 C
[28] = target: T1, Voltage-dependent L-type calcium channel subunit alpha-1C; experiment: as §1; format: functional, cell-based, Heart, Ventricular myocyte; design: ca sol conc 1.8 mM
[29] = target: T1, Voltage-dependent L-type calcium channel subunit alpha-1C; experiment: as §1; format: functional, cell-based, Heart, Ventricular myocyte; design: ca sol conc 2 mM, temp room
[30] = target: T1, Voltage-dependent L-type calcium channel subunit alpha-1C; experiment: as §1; format: functional, cell-based, Heart, Ventricular myocyte; design: ca sol conc 1.8 mM, temp 25-27 C
[31] = target: T2, Voltage-dependent L-type calcium channel subunit alpha-1C; experiment: as §2; format: functional, cell-based, Heart, Ventricular myocyte; design: ca sol conc 1.8 mM, temp 37 C
[32] = target: T2, Voltage-dependent L-type calcium channel subunit alpha-1C; experiment: as §2; format: functional, cell-based, Heart, Ventricular myocyte; design: ca sol conc 1.2 mM, temp 24 pm 1 C
[33] = target: T2, Voltage-dependent L-type calcium channel subunit alpha-1C; experiment: as §2; format: functional, cell-based, Heart, Ventricular myocyte; design: ca sol conc 5 mM, temp 20-22 C
[34] = target: T2, Voltage-dependent L-type calcium channel subunit alpha-1C; experiment: as §2; format: functional, cell-based, Heart, Ventricular myocyte; design: ca sol conc 2 mM, temp 22/37 C
[35] = target: Voltage-dependent L-type calcium channel subunit alpha-1C (Homo sapiens, UniProt Q13936); experiment: Inhibition of Cav1.2 calcium current measured using whole cell patch clamp in human atrial myocytes; format: functional, cell-based, Heart, Cardiac Muscle Cell; design: ca sol conc 2 mM, temp 22/37 C

T1 sequence (P22002 whole entry): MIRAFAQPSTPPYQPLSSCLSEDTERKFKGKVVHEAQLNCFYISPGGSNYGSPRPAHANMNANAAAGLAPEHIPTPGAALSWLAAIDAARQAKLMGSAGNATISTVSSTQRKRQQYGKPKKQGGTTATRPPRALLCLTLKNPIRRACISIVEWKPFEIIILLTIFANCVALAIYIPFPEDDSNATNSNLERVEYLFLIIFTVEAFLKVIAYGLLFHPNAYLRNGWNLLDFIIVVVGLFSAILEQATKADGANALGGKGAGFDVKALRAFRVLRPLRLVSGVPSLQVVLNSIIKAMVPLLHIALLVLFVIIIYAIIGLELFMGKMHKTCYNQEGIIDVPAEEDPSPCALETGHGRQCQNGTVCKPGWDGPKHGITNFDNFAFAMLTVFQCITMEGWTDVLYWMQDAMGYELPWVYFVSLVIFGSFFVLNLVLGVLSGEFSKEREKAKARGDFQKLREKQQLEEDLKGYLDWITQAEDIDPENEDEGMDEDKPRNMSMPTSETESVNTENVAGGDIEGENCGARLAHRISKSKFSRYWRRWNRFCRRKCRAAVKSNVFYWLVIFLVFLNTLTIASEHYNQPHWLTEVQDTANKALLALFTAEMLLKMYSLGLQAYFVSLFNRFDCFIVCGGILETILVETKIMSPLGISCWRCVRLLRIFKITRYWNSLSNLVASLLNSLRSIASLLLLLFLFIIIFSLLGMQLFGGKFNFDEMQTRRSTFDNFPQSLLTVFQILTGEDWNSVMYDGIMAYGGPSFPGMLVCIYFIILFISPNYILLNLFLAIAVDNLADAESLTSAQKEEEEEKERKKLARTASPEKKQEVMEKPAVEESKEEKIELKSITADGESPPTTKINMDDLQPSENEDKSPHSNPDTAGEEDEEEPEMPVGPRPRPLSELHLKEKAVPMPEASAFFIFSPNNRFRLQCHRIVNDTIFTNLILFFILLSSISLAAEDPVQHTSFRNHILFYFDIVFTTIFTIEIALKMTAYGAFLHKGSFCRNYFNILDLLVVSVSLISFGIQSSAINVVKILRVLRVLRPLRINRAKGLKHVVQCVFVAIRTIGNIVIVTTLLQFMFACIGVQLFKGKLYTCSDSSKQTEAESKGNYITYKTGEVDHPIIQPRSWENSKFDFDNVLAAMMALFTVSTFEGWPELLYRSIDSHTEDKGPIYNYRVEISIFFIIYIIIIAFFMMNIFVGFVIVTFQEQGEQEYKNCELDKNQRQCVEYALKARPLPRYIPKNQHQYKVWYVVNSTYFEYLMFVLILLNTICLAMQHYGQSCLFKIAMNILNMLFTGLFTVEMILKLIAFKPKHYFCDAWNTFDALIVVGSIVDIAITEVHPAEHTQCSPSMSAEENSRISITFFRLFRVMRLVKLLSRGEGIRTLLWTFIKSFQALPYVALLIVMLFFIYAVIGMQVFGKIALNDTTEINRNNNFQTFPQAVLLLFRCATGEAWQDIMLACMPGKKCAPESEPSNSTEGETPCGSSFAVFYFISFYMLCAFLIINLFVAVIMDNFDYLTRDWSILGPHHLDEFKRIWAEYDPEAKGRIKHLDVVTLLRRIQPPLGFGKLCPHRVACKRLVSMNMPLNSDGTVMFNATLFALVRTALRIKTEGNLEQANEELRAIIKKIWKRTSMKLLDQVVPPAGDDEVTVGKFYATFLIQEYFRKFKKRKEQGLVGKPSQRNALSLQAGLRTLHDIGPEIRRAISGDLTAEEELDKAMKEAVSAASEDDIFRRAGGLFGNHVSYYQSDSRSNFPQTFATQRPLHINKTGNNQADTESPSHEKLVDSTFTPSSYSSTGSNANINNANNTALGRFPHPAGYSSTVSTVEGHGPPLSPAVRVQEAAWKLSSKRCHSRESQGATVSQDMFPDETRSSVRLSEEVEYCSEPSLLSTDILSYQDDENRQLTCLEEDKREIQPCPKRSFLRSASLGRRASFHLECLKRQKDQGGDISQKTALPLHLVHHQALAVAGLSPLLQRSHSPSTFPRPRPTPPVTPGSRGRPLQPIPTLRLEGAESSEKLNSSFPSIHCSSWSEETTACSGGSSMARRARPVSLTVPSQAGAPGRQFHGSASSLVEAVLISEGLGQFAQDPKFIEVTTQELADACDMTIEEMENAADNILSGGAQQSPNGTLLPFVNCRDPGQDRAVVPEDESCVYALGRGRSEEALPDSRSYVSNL

C=C(C)[C@@H]1CCC(C)=C[C@H]1c1c(O)cc(CCCCC)cc1O [CANNABIDIOL]
IC50 [1]: 0.1 µM

Cc1cc2c(OCC(O)CN3CCN(C(c4ccccc4)c4ccccc4)CC3)cccc2[nH]1 (stereo unspecified)
IC50 [2]: 3.6 µM

COc1ccc(CCN(C)CCCOc2ccc(S(=O)(=O)c3c(C(C)C)c4ccccc4n3C)cc2)cc1OC
IC50 [3]: 0.033 µM | IC50 [4]: 0.024 µM | IC50 [5]: 0.0041 µM

CCNCC#CC(C)(C)OC(=O)C(O)(c1ccccc1)C1CCCCC1 (stereo unspecified)
IC50 [6]: 27 µM

COc1ccc(S(=O)(=O)NCc2cc(CN3CCCC3)c(O)c(CN3CCCC3)c2)cc1 [SULCARDINE]
IC50 [7]: 69.2 µM

CC(=O)N1CCN(c2ccc(OCC3COC(Cn4ccnc4)(c4ccc(Cl)cc4Cl)O3)cc2)CC1 (stereo unspecified) [KETOCONAZOLE]
IC50 [8]: 3.5 µM

COc1ccc2c(=O)c3c(n(Cc4ccccc4)c2c1)OCC3=O
IC50 [9]: 4 µM

CCCC(C)C1(CC)C(=O)NC(=S)NC1=O (stereo unspecified) [THIOPENTAL]
IC50 [10]: 0.28 µM

CC(C)[C@@H](NC(=O)NC1CCN(CCc2ccccc2)CC1)c1ccc(F)cc1
IC50 [11]: 5 µM

CCCN1CCCC[C@H]1C(=O)Nc1c(C)cccc1C [ROPIVACAINE]
IC50 [12]: 430 µM

COc1ccc(CCN(C)CCCOc2ccc(S(=O)(=O)c3c(C(C)C)cn4ccccc34)cc2)cc1OC [FANTOFARONE]
IC50 [5]: 0.0014 µM | IC50 [13]: 0.15 µM

O=C1CC(c2ccc(O)cc2)Oc2cc(O)cc(O)c21 (racemic)
IC50 [14]: 100 µM

CN1CCN(c2ncc(-c3cc(Cl)cc(Cl)c3Cl)c(N)n2)CC1 [SIPATRIGINE]
IC50 [15]: 6.02 µM

CN1CCC(=C2c3ccccc3C=Cc3ccccc32)CC1 [CYPROHEPTADINE]
IC50 [16]: 42.2 µM | IC50 [17]: 7.75 µM

COc1ccc(CCNC(C)COc2c(C)cccc2C)cc1OC (stereo unspecified)
IC50 [18]: 28.5 µM

COc1ccc2c(c1)CN(C(=O)CCN1CCC(Cc3ccccc3)CC1)CCS2
IC50 [16]: 3 µM

COc1ccc2c(c1)c(C1=C(c3c[nH]c4ccccc34)C(=O)NC1=O)cn2CCCN(C)C
IC50 [19]: 20 µM

CC(C)(C)OC(=O)N1CC2CC(CN(C[C@H](O)COc3ccc(C#N)cc3)C2)C1
IC50 [20]: 6 µM | IC50 [21]: 1.3 µM

CC(C)c1c(C(=O)Nc2ccccc2)c(-c2ccccc2)c(-c2ccc(F)cc2)n1CC[C@@H](O)C[C@@H](O)CC(=O)O [ATORVASTATIN]
IC50 [22]: inactive at 10nM. Original reference for datapoint is pubmed_id: 17466325

CCC(C)c1ccccc1OC(=O)NC (stereo unspecified) [FENOBUCARB]
IC50 [16]: 520 µM

CC(CC(c1ccccc1)c1ccccc1)NC(C)(C)C (stereo unspecified) [TERODILINE]
IC50 [6]: 33.5 µM

COc1cccc(/C=C/CN2CCC(=C3c4ccccc4C=Cc4ccccc43)CC2)c1[N+](=O)[O-]
IC50 [23]: 0.32 µM | IC50 [16]: 4.91 µM

Cc1ccc(-c2cc(C(F)(F)F)nn2-c2ccc(S(N)(=O)=O)cc2)cc1 [CELECOXIB]
IC50 [24]: 10.6 µM

CC(C)(c1ccc(O)cc1)c1ccc(O)cc1 [BISPHENOL A]
IC50 [25]: 35 µM

O=C1CSC(c2ccccc2Cl)c2cc(Cl)ccc2N1 (stereo unspecified)
IC50 [26]: 0.27 µM

O=c1cc(N2CCOCC2)oc2c(-c3ccccc3)cccc12 [LY-294002]
IC50 [19]: 12 µM

O=C(/C=C/c1ccc(O)c(O)c1/C=C/c1ccc(O)c(O)c1)O[C@H](Cc1ccc(O)c(O)c1)C(=O)O [SALVIANOLIC ACID A]
IC50 [27]: 38.3 µM

COCC(=O)O[C@]1(CCN(C)CCCc2nc3ccccc3[nH]2)CCc2cc(F)ccc2[C@@H]1C(C)C [MIBEFRADIL]
IC50 [11]: 1.1 µM

CC(C)CC(N(C)C)C1(c2ccc(Cl)cc2)CCC1 (stereo unspecified) [SIBUTRAMINE]
IC50 [28]: 9.97 µM

COCCOc1c(F)cccc1CCN1CCC(CC(=O)N[C@@H](c2ccc(F)cc2)C(C)C)CC1
IC50 [11]: 2.1 µM

COCCOc1ccccc1CCN1CCC(CC(=O)N[C@@H](c2ccc(F)cc2)C(C)C)CC1
IC50 [29]: 38 µM

O=C1c2ccccc2-c2c3c(cc4ccnc1c24)OCO3 [LIRIODENINE]
IC50 [30]: 2.5 µM

COC(=O)C1=CCCN(C)C1 [ARECOLINE]
IC50 [31]: 33.7 µM

O=c1c(-c2ccc(O)cc2)coc2cc(O)cc(O)c12 [GENISTEIN]
IC50 [14]: 57.5 µM

CCN(CC)CCCC(C)Nc1c2ccc(Cl)cc2nc2ccc(OC)cc12 (stereo unspecified) [QUINACRINE]
IC50 [32]: 5.6 µM

COc1ccccc1CCN1CCC(CC(=O)N[C@@H](c2ccc(F)cc2)C(C)C)CC1
IC50 [11]: 6.8 µM

CC(C)C(CNC(=O)C1CCN(CCc2ccccc2)CC1)c1ccc(F)cc1 (stereo unspecified)
IC50 [11]: 3.9 µM

CC1=C(C(=O)OC(C)C)[C@H](c2cccc3nonc23)C([N+](=O)[O-])=C(C)N1 (mixture of isomers)
IC50 [33]: 0.08 µM

CCCOC(C(=O)OC1CCN(C)CC1)(c1ccccc1)c1ccccc1 [PROPIVERINE]
IC50 [34]: 34.7 µM | IC50 [35]: 41.7 µM
